Assay: Removal of Cu[II] ions from hydraulic fluid with thiol compounds of structure (2), ICP measurement
Details: Skydrol LD-4 with about 10 ppm copper (II) acetylacetate; for [Cu] T = 24 hr.: after 24 hr. contact with equimolar amount of thiol compound; for [Cu] T = 0 hr.: before addition of the thiol compound
Protocol: Copper (II) acetylacetate is added to a sample of hydraulic fluid (e.g., Skydrol® LD-4 (Eastman Chemical Co. (Kingsport, Tenn. [US])), though any phosphate ester hydraulic fluid is suitable) to provide a final concentration of about 10 ppm copper (II) acetylacetate in the fluid. The amount of copper (II) is measured in the solution using an Inductively Coupled Plasma Spectrometer (ICP). An equimolar amount of a thiol compound of structure (2) is added to a portion of the copper (II) acetate-hydraulic fluid solution and the solution-mixture is mixed using a vortex mixer for 1.5 minutes. The solution-mixture is allowed to stand for 24 hours and the copper (II) content present in the solution is measured using an Inductively Coupled Plasma Spectrometer (ICP). The amount of copper sequestered or complexed by the thiol compound is determined from the difference in the copper (II) concentrations before and after addition of the thiol compound.
Table 5 presents results of Copper (II) content in aliquots of hydraulic fluid (Skydrol® LD-4) containing copper (II) acetylacetate to a final concentration of about 10 ppm copper (II) acetylacetate and contacted with an equimolar amount of the indicated thiol compounds for 24 hours.

| Structure (SMILES) | [Cu] T = 24 hr. | [Cu] T = 0 hr. |
| --- | --- | --- |
| Sc1nnc(S)s1 [I, 1,3,4-Thiadiazole-2,5-dithiol] | 7.9 ppm | 10.8 ppm |
| Sc1nnc(SSc2nnc(S)s2)s1 [II, 5,5′-Dithiobis(1,3,4-Thiadiazole-2(3H)-thione)] | 6.4 ppm | 11.1 ppm |

From patent US10538230B2, “Thiol based resin system for removal of copper ions from hydraulic fluid” (THE BOEING COMPANY, priority 2015, dated 2020)
